Test results from the Kinase Knowledgebase extract (Sharma et al. 2016).

What was measured:
[1] = molecular target: PIK3CG (human) (UniProt P48736); assay: Enzyme Assay
[2] = molecular target: PIK3CA (human) (UniProt P42336); assay: Enzyme Assay
[3] = molecular target: PIK3CD (Human) (UniProt O00329); assay: Enzyme Assay
[4] = molecular target: PIK3CB (Human) (UniProt P42338); assay: Enzyme Assay
[5] = molecular target: PIK3CD (Human) (UniProt O00329); assay: Cell-Based Assay; settings: raji
[6] = molecular target: PIK3CA (human) (UniProt P42336); assay: Cell-Based Assay; settings: skov-3
[7] = molecular target: PIK3CB (Human) (UniProt P42338); assay: Cell-Based Assay; settings: 786-o

PIK3CD (Human), sequence (O00329 whole entry, looked up): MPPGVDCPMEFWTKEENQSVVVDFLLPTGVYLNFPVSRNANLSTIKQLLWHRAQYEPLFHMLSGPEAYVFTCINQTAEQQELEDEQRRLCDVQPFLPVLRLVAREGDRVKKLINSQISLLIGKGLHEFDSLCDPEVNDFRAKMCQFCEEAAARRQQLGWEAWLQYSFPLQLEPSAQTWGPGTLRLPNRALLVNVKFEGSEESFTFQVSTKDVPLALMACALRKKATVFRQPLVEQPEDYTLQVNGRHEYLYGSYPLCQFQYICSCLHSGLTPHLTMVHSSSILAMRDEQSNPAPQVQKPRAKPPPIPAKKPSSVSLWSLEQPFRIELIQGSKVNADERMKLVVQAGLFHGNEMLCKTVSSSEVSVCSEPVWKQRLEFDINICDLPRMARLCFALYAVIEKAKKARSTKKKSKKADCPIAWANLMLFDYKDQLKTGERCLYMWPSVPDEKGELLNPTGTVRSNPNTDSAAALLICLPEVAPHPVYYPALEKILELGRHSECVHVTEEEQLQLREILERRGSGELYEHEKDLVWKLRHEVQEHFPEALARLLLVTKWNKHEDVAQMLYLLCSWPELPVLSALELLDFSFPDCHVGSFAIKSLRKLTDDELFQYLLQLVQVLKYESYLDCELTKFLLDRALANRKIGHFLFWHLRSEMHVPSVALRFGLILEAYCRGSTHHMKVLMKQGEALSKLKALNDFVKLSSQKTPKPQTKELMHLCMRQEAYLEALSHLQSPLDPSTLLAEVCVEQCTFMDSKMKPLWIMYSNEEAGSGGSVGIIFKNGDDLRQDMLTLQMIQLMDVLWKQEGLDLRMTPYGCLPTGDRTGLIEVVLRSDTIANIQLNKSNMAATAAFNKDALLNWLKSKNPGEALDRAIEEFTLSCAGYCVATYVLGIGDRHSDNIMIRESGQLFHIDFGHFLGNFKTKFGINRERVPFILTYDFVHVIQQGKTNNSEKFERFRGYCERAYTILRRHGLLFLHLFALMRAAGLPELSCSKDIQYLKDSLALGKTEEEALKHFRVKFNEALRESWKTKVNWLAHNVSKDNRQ
PIK3CB (Human), sequence (P42338 whole entry, looked up): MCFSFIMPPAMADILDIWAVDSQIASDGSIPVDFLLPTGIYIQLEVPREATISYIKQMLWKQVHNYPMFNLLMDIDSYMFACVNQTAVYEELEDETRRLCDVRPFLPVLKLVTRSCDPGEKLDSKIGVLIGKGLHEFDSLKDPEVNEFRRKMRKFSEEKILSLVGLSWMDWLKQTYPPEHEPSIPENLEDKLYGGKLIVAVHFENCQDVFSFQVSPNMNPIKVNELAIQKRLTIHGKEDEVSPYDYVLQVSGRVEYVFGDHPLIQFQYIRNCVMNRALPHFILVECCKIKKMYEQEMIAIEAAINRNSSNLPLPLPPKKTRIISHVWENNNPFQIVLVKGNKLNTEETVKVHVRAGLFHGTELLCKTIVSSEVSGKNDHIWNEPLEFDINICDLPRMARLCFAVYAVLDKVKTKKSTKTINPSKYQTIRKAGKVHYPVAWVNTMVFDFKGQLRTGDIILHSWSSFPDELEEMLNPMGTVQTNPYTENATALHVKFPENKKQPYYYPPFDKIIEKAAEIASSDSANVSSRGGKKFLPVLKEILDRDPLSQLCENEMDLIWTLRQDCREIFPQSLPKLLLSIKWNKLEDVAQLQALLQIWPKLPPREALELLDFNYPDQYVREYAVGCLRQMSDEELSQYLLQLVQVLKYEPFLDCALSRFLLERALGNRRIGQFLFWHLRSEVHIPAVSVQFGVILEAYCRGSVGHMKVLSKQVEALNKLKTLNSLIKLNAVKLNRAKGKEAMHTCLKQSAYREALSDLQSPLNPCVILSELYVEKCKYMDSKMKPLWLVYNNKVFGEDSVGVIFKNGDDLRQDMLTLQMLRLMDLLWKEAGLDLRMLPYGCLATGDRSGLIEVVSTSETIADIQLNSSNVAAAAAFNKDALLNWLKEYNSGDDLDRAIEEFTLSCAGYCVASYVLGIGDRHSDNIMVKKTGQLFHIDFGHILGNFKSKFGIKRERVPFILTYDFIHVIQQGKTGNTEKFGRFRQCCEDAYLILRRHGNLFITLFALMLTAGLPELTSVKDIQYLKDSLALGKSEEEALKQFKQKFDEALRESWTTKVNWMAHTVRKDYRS
PIK3CG (human), sequence (P48736 whole entry, looked up): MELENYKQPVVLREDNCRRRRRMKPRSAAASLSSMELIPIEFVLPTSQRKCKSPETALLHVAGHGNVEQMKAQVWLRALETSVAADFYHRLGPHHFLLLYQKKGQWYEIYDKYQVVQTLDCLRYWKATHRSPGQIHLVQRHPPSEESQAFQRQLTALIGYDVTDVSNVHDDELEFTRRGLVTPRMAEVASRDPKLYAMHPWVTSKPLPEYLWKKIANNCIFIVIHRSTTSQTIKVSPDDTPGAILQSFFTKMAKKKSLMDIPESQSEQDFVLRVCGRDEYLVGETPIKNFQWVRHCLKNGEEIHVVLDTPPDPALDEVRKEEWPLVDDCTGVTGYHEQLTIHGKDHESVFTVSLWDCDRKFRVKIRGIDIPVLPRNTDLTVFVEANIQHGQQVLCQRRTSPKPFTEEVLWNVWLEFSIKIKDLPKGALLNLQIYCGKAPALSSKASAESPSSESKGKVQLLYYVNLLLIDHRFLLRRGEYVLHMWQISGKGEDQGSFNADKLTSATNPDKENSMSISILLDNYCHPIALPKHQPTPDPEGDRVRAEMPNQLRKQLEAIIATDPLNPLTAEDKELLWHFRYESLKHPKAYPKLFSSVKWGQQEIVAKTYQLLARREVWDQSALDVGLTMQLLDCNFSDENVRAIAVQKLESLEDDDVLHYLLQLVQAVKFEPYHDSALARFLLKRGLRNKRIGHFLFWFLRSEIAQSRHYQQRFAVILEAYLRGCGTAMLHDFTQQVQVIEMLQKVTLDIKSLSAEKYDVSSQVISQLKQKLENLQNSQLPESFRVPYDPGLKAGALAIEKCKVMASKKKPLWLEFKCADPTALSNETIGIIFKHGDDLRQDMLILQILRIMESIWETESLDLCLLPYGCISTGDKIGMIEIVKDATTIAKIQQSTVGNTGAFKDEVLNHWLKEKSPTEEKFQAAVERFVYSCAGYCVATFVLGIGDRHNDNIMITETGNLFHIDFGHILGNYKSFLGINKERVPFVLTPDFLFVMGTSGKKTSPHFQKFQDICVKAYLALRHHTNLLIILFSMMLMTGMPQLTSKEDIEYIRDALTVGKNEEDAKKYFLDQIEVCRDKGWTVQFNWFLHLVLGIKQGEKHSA
PIK3CA (human), sequence (P42336 whole entry, looked up): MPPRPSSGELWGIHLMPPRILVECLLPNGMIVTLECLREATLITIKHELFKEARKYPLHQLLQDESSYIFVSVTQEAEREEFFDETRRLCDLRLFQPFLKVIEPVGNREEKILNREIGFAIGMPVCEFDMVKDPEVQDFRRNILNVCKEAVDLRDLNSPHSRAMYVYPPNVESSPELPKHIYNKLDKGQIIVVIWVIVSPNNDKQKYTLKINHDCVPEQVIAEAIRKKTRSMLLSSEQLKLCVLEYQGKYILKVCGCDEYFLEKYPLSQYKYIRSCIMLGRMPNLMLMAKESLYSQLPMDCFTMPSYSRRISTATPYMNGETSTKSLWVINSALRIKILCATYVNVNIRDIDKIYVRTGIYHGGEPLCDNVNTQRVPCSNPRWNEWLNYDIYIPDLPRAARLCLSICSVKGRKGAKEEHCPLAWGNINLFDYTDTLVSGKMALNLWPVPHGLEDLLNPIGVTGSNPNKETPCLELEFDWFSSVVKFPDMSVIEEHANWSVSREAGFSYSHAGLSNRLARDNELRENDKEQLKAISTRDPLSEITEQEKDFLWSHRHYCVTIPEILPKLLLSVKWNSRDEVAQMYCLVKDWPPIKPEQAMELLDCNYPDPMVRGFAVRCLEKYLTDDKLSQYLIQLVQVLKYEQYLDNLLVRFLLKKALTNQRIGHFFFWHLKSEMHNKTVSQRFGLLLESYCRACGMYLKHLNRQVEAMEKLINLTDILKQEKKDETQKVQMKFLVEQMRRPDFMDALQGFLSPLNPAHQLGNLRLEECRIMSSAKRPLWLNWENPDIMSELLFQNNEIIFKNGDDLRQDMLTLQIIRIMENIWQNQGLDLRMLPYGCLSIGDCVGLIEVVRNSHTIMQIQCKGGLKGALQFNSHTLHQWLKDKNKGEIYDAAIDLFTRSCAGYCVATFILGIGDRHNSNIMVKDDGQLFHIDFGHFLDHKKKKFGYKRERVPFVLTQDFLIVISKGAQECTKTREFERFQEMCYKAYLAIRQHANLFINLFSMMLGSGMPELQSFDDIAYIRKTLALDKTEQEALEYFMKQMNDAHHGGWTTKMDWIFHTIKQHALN

Structure (SMILES) | IC50 [1] [nM] | IC50 [2] [nM] | IC50 [3] [nM] | IC50 [4] [nM] | IC50 [5] [nM] | IC50 [6] [nM] | IC50 [7] [nM]
COc1cncc(-c2cccc3cc([C@H](C)Nc4ncnc5scnc45)n(-c4ccccc4)c(=O)c23)c1 | < 100 | < 100 | < 100 | 100 to 1000 |  |  | 
CNC(=O)c1cccc2cc([C@H](C)Nc3ncnc4scnc34)n(-c3ccccc3)c(=O)c12 | > 10000 | > 10000 | 100 to 1000 | > 10000 |  |  | 
CC(C)n1c([C@H](C)Nc2ncnc3scnc23)cc2cccc(-c3ccnnc3)c2c1=O | > 10000 | > 10000 | 100 to 1000 | > 10000 | < 100 |  | 
COc1ncc(-c2cccc3cc([C@H](C)Nc4ncnc5scnc45)n(-c4ccccc4)c(=O)c23)cn1 | < 100 |  | < 100 |  | < 100 |  | 
C[C@H](Nc1nc(N)nc2scnc12)c1cc2cccc(-c3cnn(C)c3)c2c(=O)n1-c1ccccc1 | < 100 | 100 to 1000 | < 100 | 100 to 1000 |  |  | 
C[C@H](Nc1ncnc2scnc12)c1cc2cccc(-c3cncc(N)c3)c2c(=O)n1-c1ccccc1 | 100 to 1000 |  | < 100 | > 10000 | < 100 |  | 
C[C@H](Nc1ncnc2scnc12)c1cc2cccc(Cl)c2c(=O)n1-c1ccon1 | 100 to 1000 | > 10000 | < 100 | 100 to 1000 | < 100 |  | 
C[C@H](Nc1ncnc2scnc12)c1cc2cccc(-c3cnc4nccnc4c3)c2c(=O)n1-c1ccccc1 | 100 to 1000 | > 10000 | < 100 | > 10000 |  |  | 
C[C@H](Nc1ncnc2scnc12)c1cc2cccc(-c3ccccn3)c2c(=O)n1-c1ccccc1 | 100 to 1000 | > 10000 | < 100 | > 10000 |  |  | 
Cc1ncc(-c2cccc3cc([C@H](C)Nc4ncnc5scnc45)n(-c4ccon4)c(=O)c23)cn1 | > 10000 | > 10000 | 100 to 1000 | > 10000 | < 100 |  | 
COc1cncc(-c2cccc3cc([C@H](C)Nc4ncnc5scnc45)n(C4CC4)c(=O)c23)c1 | 100 to 1000 | 100 to 1000 | < 100 | 100 to 1000 |  |  | 
C[C@H](Nc1ncnc2scnc12)c1cc2cccc(C(=O)N(C)C)c2c(=O)n1-c1ccccc1 | > 10000 | > 10000 | 100 to 1000 | > 10000 |  |  | 
C[C@H](Nc1ncnc2scnc12)c1cc2cccc(-c3cn(C)cn3)c2c(=O)n1-c1ccccc1 | > 10000 | > 10000 | 100 to 1000 | > 10000 |  |  | 
C[C@H](Nc1ncnc2scnc12)c1cc2cccc(-c3cnn(C)c3)c2c(=O)n1-c1ccccc1 | < 100 | 100 to 1000 | < 100 |  | < 100 | 100 to 1000 | 
C[C@H](Nc1ncnc2scnc12)c1cc2cccc(Cl)c2c(=O)n1-c1ccccc1 | < 100 | 100 to 1000 | < 100 | < 100 |  |  | 
Cc1nc2c(N[C@@H](C)c3cc4cccc(Cl)c4c(=O)n3-c3ccccc3)ncnc2s1 | > 10000 | > 10000 | > 10000 | > 10000 |  |  | 
CC(C)n1c([C@H](C)Nc2ncnc3scnc23)cc2cccc(-c3ccc(=O)n(C)c3)c2c1=O | 100 to 1000 |  | < 100 |  | < 100 | 100 to 1000 | 100 to 1000
C[C@H](Nc1ncnc2scnc12)c1cc2cccc(-c3cnc4[nH]ccc4c3)c2c(=O)n1-c1ccccc1 | < 100 | 100 to 1000 | < 100 | 100 to 1000 |  |  | 
C[C@H](Nc1ncnc2scnc12)c1cc2cccc(Cl)c2c(=O)n1C1CC1 | < 100 | 100 to 1000 | < 100 | < 100 |  |  | 
COc1ncc(-c2cccc3cc([C@H](C)Nc4ncnc5scnc45)n(-c4ccon4)c(=O)c23)cn1 | 100 to 1000 |  | < 100 |  | < 100 | 100 to 1000 | 100 to 1000
C[C@H](Nc1ncnc2scnc12)c1cc2cccc(-c3cnn(C)c3)c2c(=O)n1C1CC1 | < 100 | 100 to 1000 | < 100 | 100 to 1000 |  |  | 
C[C@H](Nc1ccnc2scnc12)c1cc2cccc(Cl)c2c(=O)n1-c1ccccc1 | < 100 | 100 to 1000 | < 100 | 100 to 1000 |  |  | 
